Target: T1, human recombinant ALK1 (GST fused to ALK1 intracellular domain [His142-Gln503]) (Homo sapiens, UniProt P37023)
T1 construct: GST fused to ALK1 intracellular domain [His142-Gln503]; made in house
T1 sequence (P37023 142-503): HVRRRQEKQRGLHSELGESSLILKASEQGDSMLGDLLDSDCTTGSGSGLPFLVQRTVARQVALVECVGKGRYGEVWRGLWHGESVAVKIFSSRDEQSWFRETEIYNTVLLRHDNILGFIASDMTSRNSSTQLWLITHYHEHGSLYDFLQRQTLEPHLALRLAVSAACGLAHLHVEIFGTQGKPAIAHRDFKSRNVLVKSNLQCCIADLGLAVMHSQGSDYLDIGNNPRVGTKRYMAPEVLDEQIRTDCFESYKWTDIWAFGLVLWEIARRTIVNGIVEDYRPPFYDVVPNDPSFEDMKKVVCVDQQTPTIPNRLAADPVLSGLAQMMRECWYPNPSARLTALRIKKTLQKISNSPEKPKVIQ
Assay: ALK1-Kinase Flashplate-Assay
Assay type: biochemical
Conditions: 0.5 μM ATP, biotinylated α-casein substrate; read-out: Assay 1 (ALK1-Kinase Flashplate-Assay IC50 class)
Procedure, shortened: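 Radiometric Flashplate assay at 20 °C: GST-ALK1 intracellular domain (5 ng/well) with 1 μM biotinylated bovine α-casein, 0.5 μM ATP plus [γ-33P]ATP in Tris pH 8.0, 1 mM MnCl2, 1% or 5% DMSO, 60 min. Normalised to no-inhibitor (0%) and 10 mM EDTA (100%); IC50 by 4-parameter fit.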

SMILES | IC50 [nM]
COc1cccc(-c2cnn3ccc(Nc4ccc(N5CCOCC5)cc4)nc23)c1 [Example 233, [3-(3-Methoxy-phenyl)-pyrazolo[1,5-a]pyrimidin-5-yl]-(4-morpholin-4-yl-phenyl)-amine] | 1000 to 10000
COc1ccc(-c2cnn3ccc(Nc4ccc(N5CCOCC5)cc4)nc23)cc1 [Example 173, [3-(4-Methoxy-phenyl)-pyrazolo[1,5-a]pyrimidin-5-yl]-(4-morpholin-4-yl-phenyl)-amine] | 1000 to 10000
Oc1cccc(-c2cnn3ccc(NC4CCC(O)CC4)nc23)c1 (centres unmarked) [Example 156, 3-[5-(4-Hydroxy-cyclohexylamino)-pyrazolo[1,5-a]pyrimidin-3-yl]-phenol] | < 1000
OCc1cccc(-c2cnn3ccc(Nc4ccccc4)nc23)c1 [Example 272, [3-(5-Phenylamino-pyrazolo[1,5-a]pyrimidin-3-yl)-phenyl]-methanol] | < 1000
Cc1ccc(S(=O)(=O)Nc2ccc(Nc3ccn4ncc(-c5cccnc5)c4n3)cc2)cc1 [Example 52, 4-Methyl-N-[4-(3-pyridin-3-yl-pyrazolo[1,5-a]pyrimidin-5-ylamino)-phenyl]-benzenesulfonamide] | < 1000
FC(F)(F)Oc1cccc(-c2cnn3ccc(NCc4ccncc4)nc23)c1 [Example 113, Pyridin-4-ylmethyl-[3-(3-trifluoromethoxy-phenyl)-pyrazolo[1,5-a]pyrimidin-5-yl]-amine] | < 1000
CC(=O)c1cccc(-c2cnn3ccc(NCc4cccnc4)nc23)c1 [Example 227, 1-(3-{5-[(Pyridin-3-ylmethyl)-amino]-pyrazolo[1,5-a]pyrimidin-3-yl}-phenyl)-ethanone] | 1000 to 10000
c1cc(-c2cnn3ccc(Nc4ccc(N5CCOCC5)cc4)nc23)cs1 [Example 467, (4-Morpholin-4-yl-phenyl)-(3-thiophen-3-yl-pyrazolo[1,5-a]pyrimidin-5-yl)-amine] | 1000 to 10000
CC(C)c1ccc(Nc2ccn3ncc(-c4cccc(CO)c4)c3n2)cc1 [Example 275, {3-[5-(4-Isopropyl-phenylamino)-pyrazolo[1,5-a]pyrimidin-3-yl]-phenyl}-methanol] | 1000 to 10000
COc1ccc(Nc2ccn3ncc(-c4ccsc4)c3n2)cn1 [Example 464, (6-Methoxy-pyridin-3-yl)-(3-thiophen-3-yl-pyrazolo[1,5-a]pyrimidin-5-yl)-amine] | 1000 to 10000
COc1cc(-c2cnn3ccc(NCc4cccnc4)nc23)cc(OC)c1OC [Example 126, Pyridin-3-ylmethyl-[3-(3,4,5-trimethoxy-phenyl)-pyrazolo[1,5-a]pyrimidin-5-yl]-amine] | 1000 to 10000
c1ccc2c(-c3cnn4ccc(Nc5ccc(N6CCOCC6)cc5)nc34)cccc2c1 [Example 412, (4-Morpholin-4-yl-phenyl)-(3-naphthalen-1-yl-pyrazolo[1,5-a]pyrimidin-5-yl)-amine] | 1000 to 10000
COc1cncc(-c2cnn3ccc(NCCO)nc23)c1 [Example 123, 2-[3-(5-Methoxy-pyridin-3-yl)-pyrazolo[1,5-a]pyrimidin-5-ylamino]-ethanol] | < 1000
COc1cc(-c2cnn3ccc(Nc4ccc(C)c(NS(C)(=O)=O)c4)nc23)cc(OC)c1OC [Example 105, N-{2-Methyl-5-[3-(3,4,5-trimethoxy-phenyl)-pyrazolo[1,5-a]pyrimidin-5-ylamino]-phenyl}-methanesulfonamide] | < 1000
Oc1ccc(-c2cnn3ccc(Nc4ccccc4)nc23)cc1 [Example 282, 4-(5-Phenylamino-pyrazolo[1,5-a]pyrimidin-3-yl)-phenol] | 1000 to 10000
COc1ccc(-c2cnn3ccc(Nc4ccc(O)cc4)nc23)c(OC)c1 [Example 435, 4-[3-(2,4-Dimethoxy-phenyl)-pyrazolo[1,5-a]pyrimidin-5-ylamino]-phenol] | 1000 to 10000

SMILES | IC50 [nM]
Cn1cc(-c2cnn3ccc(NC4CCC(O)CC4)nc23)cn1 (centres unmarked) [Example 221, 4-[3-(1-Methyl-1H-pyrazol-4-yl)-pyrazolo[1,5-a]pyrimidin-5-ylamino]-cyclohexanol] | 1000 to 10000
COc1cc(-c2cnn3ccc(NC4CCC(O)CC4)nc23)ccc1O (centres unmarked) [Example 160, 4-[5-(4-Hydroxy-cyclohexylamino)-pyrazolo[1,5-a]pyrimidin-3-yl]-2-methoxy-phenol] | 1000 to 10000
c1cncc(CNc2ccn3ncc(-c4ccc5c(c4)OCO5)c3n2)c1 [Example 290, (3-Benzo[1,3]dioxol-5-yl-pyrazolo[1,5-a]pyrimidin-5-yl)-pyridin-3-ylmethyl-amine] | 1000 to 10000
Oc1ccc(-c2cnn3ccc(Nc4ccc(N5CCOCC5)cc4)nc23)cc1 [Example 28, 4-[5-(4-Morpholin-4-yl-phenylamino)-pyrazolo[1,5-a]pyrimidin-3-yl]-phenol] | 1000 to 10000
CC(=O)Nc1cccc(-c2cnn3ccc(Nc4ccc(N5CCOCC5)cc4)nc23)c1 [Example 29, N-{3-[5-(4-Morpholin-4-yl-phenylamino)-pyrazolo[1,5-a]pyrimidin-3-yl]-phenyl}-acetamide] | 1000 to 10000
COc1cc(-c2cnn3ccc(NCCO)nc23)ccc1O [Example 165, 4-[5-(2-Hydroxy-ethylamino)-pyrazolo[1,5-a]pyrimidin-3-yl]-2-methoxy-phenol] | < 1000
COc1cc(-c2cnn3ccc(Nc4ccc(C(C)C)cc4)nc23)ccc1O [Example 277, 4-[5-(4-Isopropyl-phenylamino)-pyrazolo[1,5-a]pyrimidin-3-yl]-2-methoxy-phenol] | < 1000
COc1cccc(-c2cnn3ccc(Nc4cccc(Cl)c4)nc23)c1 [Example 444, (3-Chloro-phenyl)-[3-(3-methoxy-phenyl)-pyrazolo[1,5-a]pyrimidin-5-yl]-amine] | 1000 to 10000
c1cncc(CNc2ccn3ncc(-c4ccsc4)c3n2)c1 [Example 291, Pyridin-3-ylmethyl-(3-thiophen-3-yl-pyrazolo[1,5-a]pyrimidin-5-yl)-amine] | 1000 to 10000
Oc1ccc(Nc2ccn3ncc(-c4ccc(O)cc4)c3n2)cc1 [Example 49, 4-[5-[(4-hydroxyphenyl)amino]pyrazolo[1,5-a]pyrimidin-3-yl]-phenol] | < 1000
COc1ccc(-c2cnn3ccc(NCc4ccncc4)nc23)cc1 [Example 154, [3-(4-Methoxy-phenyl)-pyrazolo[1,5-a]pyrimidin-5-yl]-pyridin-4-ylmethyl-amine] | 1000 to 10000
c1cc(N2CCOCC2)ccc1Nc1ccn2ncc(-c3ccc4c(c3)OCO4)c2n1 [Example 472, (3-Benzo[1,3]dioxol-5-yl-pyrazolo[1,5-a]pyrimidin-5-yl)-(4-morpholin-4-yl-phenyl)-amine] | 1000 to 10000
FC(F)(F)Oc1cccc(-c2cnn3ccc(Nc4ccc(N5CCOCC5)cc4)nc23)c1 [Example 129, (4-Morpholin-4-yl-phenyl)-[3-(3-trifluoromethoxy-phenyl)-pyrazolo[1,5-a]pyrimidin-5-yl]-amine] | 1000 to 10000
c1ccc(-c2cnn3ccc(NCc4cccnc4)nc23)cc1 [Example 376, (3-Phenyl-pyrazolo[1,5-a]pyrimidin-5-yl)-pyridin-3-ylmethyl-amine] | 1000 to 10000
COc1ccc(-c2cnn3ccc(Nc4cc(OC)c(OC)c(OC)c4)nc23)cc1OC [Example 462, [3-(3,4-Dimethoxy-phenyl)-pyrazolo[1,5-a]pyrimidin-5-yl]-(3,4,5-trimethoxy-phenyl)-amine] | 1000 to 10000
COc1cccc(-c2cnn3ccc(Nc4ccc(OC)nc4)nc23)c1 [Example 196, [3-(3-Methoxy-phenyl)-pyrazolo[1,5-a]pyrimidin-5-yl]-(6-methoxy-pyridin-3-yl)-amine] | < 1000
